Results published in ChEMBL document CHEMBL4665853, “Inhibition of Macrophage Migration Inhibitory Factor by a Chimera of Two Allosteric Binders” (ACS Med Chem Lett, 2020).

Experiments:
[1] = molecular target: T1, Macrophage migration inhibitory factor (Homo sapiens, UniProt P14174); test: Binding affinity to recombinant biotinylated human MIF expressed in Escherichia coli BL21 DE3 by surface plasmon resonance assay
T1 sequence (P14174 whole entry): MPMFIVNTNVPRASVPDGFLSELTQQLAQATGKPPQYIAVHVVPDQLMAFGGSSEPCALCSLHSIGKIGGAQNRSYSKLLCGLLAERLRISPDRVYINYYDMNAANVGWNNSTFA

[2] = molecular target: T1, Macrophage migration inhibitory factor; test: Inhibition of recombinant biotinylated human MIF tautomerase activity expressed in Escherichia coli BL21 DE3 assessed as reduction in tautomerization of keto-p-hydroxyphenylpyruvate using keto-p-hydroxyphenylpyrivate as substrate preincubated for 30 mins followed by substrate addition by HTS assay
[3] = molecular target: T1, Macrophage migration inhibitory factor; test: Inhibition of recombinant human MIF expressed in Escherichia coli BL21 DE3 binding to recombinant soluble human CD74 receptor ectodomain (73 to 232 residues) expressed in Escherichia coli BL21 (DE3) pLysS using p-nitrophenyl phosphate as substrate by ELISA
[4] = molecular target: T1, Macrophage migration inhibitory factor; test: Inhibition of MIF-induced IL-8 secretion in human foreskin fibroblasts incubated for 30 mins by ELISA
[5] = molecular target: T1, Macrophage migration inhibitory factor; test: Non-competitive inhibition of recombinant human MIF assessed as inhibition constant using varying levels of p-hydroxyphenylpyruvate as substrate by Lineweaver-Burk plot analysis

Row | Kd [1] [µM] | IC50 [2] [µM] | IC50 [3] [µM] | IC50 [4] [µM] | Ki [5] [µM] | Compound
1 | 6.86 | 7.59 | 0.93 | 4.42 | – | CC(C)C(=O)c1c(Cc2cccc(/N=N/c3ccc4c(S(=O)(=O)O)cc(S(=O)(=O)O)c(N)c4c3O)c2)nn2ccccc12
2 | 1.4 | – | – | – | 30.9 | CC(C)C(=O)c1c(C(C)C)nn2ccccc12 [IBUDILAST]
